Consider one compound from ChEMBL document CHEMBL3112584, “Urokinase-type plasminogen activator expression and Rac1/WAVE-2/Arp2/3 pathway are blocked by pterostilbene to suppress cell migration and invasion in MDA-MB-231 cells” (Bioorg Med Chem Lett, 2014).

In data set [1] the target is Ras-related C3 botulinum toxin substrate 1 (Homo sapiens) (UniProt P63000). Put plainly: Inhibition of Rac1 in human MDA-MB-231 cells at 5 uM after 30 mins by G-LISA activity assay. Format: cell-based.
The target is the same in data set [2]. The data set can be described thus: Inhibition of Rac1 in human MDA-MB-231 cells at 10 uM after 30 mins by G-LISA activity assay. Format: cell-based.
Data set [3] concerns MDA-MB-231. Put plainly: Antiinvasion activity in human MDA-MB-231 cells reduction of cell assessed as inhibition of FBS-induced cell invaded to lower surface at 2 uM after 24 hrs. Format: functional. As to conditions: MDA-MB-231, 24 h.
Data set [4] has as its system MDA-MB-231. Put plainly: Inhibition of NF-kappaB activation in human MDA-MB-231 cells after 24 hrs by luciferase assay. Format: cell-based.
Data set [5] relates to MDA-MB-231. The data set can be described thus: Inhibition of cell migration in human MDA-MB-231 reduction of cell assessed as cells migrated into scratched area at 5 uM after 24 hrs by wound healing assay. It counts as functional. As to conditions: MDA-MB-231, 24 h.
In data set [6] the target is Ras-related C3 botulinum toxin substrate 1 (Homo sapiens) (UniProt P63000). Put plainly: Inhibition of Rac1 in human MDA-MB-231 cells at 2 uM after 30 mins by G-LISA activity assay. Format: cell-based.
The test system of data set [7] is MDA-MB-231. The data set can be described thus: Antiinvasion activity in human MDA-MB-231 cells reduction of cell assessed as inhibition of FBS-induced cell invaded to lower surface at 5 uM after 24 hrs. It counts as functional. As to conditions: MDA-MB-231, 24 h.
Data set [8] deals with MDA-MB-231. Put plainly: Cytotoxicity against human MDA-MB-231 cells assessed as cell viability up to 10 uM after 24 hrs by MTT assay relative to control. Format: cell-based. As to conditions: mda-mb-231, 24 h.
Data set [9] relates to MDA-MB-231. The data set can be described thus: Inhibition of cell migration in human MDA-MB-231 cells reduction of cell assessed as cells migrated into scratched area at 2 uM after 24 hrs by wound healing assay. It counts as functional. As to conditions: MDA-MB-231, 24 h.
A further data set is filed under the species Homo sapiens. Put plainly: Inhibition of DNA binding of NF-kappaB (unknown origin) on uPA promoter at 10 uM by ChIP assay.
Data set [10] deals with Urokinase-type plasminogen activator (Homo sapiens) (UniProt P00749). Put plainly: Inhibition of uPA activity in human MDA-MB-231 cells at 10 uM. Also on record: scale not given: the % may be the effect or the level left. It counts as cell-based.
Data set [11] deals with MDA-MB-231. Put plainly: Inhibition of cell migration in human MDA-MB-231 cells assessed as reduction of cell migrated into scratched area at 10 uM after 24 hrs by wound healing assay. It counts as functional. As to conditions: MDA-MB-231, 24 h.
In data set [12] the test system is MDA-MB-231. The data set can be described thus: Down-regulation of uPA mRNA expression in human MDA-MB-231 cells after 24 hrs by RT-PCR analysis. Format: functional, cell-based.
In data set [13] the test system is MDA-MB-231. The data set can be described thus: Down-regulation of uPAR mRNA expression in human MDA-MB-231 cells at 2 to 10 uM after 24 hrs by RT-PCR analysis. It counts as functional, cell-based.
A short description of data set [14]: Cytotoxicity against human MDA-MB-231 cells assessed as cell viability at 40 uM after 24 hrs by MTT assay relative to control. Format: cell-based. As to conditions: read-out: Activity. For orientation: Formazan colour is commonly taken as a measure of viable cells.
Data set [15] deals with MDA-MB-231. Put plainly: Antiinvasion activity in human MDA-MB-231 cells reduction of cell assessed as inhibition of FBS-induced cell invaded to lower surface at 10 uM after 24 hrs. Format: functional. As to conditions: MDA-MB-231, 24 h.
Data set [16] concerns the target Ras-related C3 botulinum toxin substrate 1 (Homo sapiens) (UniProt P63000). Put plainly: Inhibition of Rac1-mediated WAVE-2/Arp2/3 expression in human MDA-MB-231 cells after […] by Western blotting analysis. It counts as cell-based. On the technique in general: Immunoblotting shows a protein as a band on a membrane.
Data set [17] has as its target Urokinase-type plasminogen activator (Homo sapiens) (UniProt P00749). The data set can be described thus: Inhibition of uPA activity in human MDA-MB-231 cells at 5 uM. It counts as cell-based. Also on record: scale not given: the % may be the effect or the level left.

Active and inactive are the calls of the source. No cut-off for these calls is given here.

For orientation: inhibition means the share of the control response that was lost under treatment. Regarding `COc1cc(/C=C/c2ccc(O)cc2)cc(OC)c1` [PTEROSTILBENE], the inhibition was 22% in data set [1]; 27% in [2]; “Dose-dependent effect” in the data set with MDA-MB-231 [4]; 14% in data set [6]; “Dose-dependent effect” in data set [16]. In addition, the inhibition at 2 µM in the data set on MDA-MB-231 [3] turned out to be 20%; in the data set with MDA-MB-231 [9], 25%. For the same compound, the inhibition at 5 µM with MDA-MB-231 [5] was 59%; in the data set on MDA-MB-231 [7], 29%. Also, the Activity entry was “Non-toxic” in the data set with MDA-MB-231 [8], 61% in data set [10], “Dose-dependent effect” in the data set with MDA-MB-231 [12] and 25% in data set [17]. In addition, the inhibition result in the data set listed under Homo sapiens is “Active”. For the same compound, the figures for the inhibition at 10 µM in the data set on MDA-MB-231 [11] and in the data set with MDA-MB-231 [15] were 76% and 38%, respectively. The outcome with MDA-MB-231 [13] was inactive. Also, the viability at 24 h, 40 µM in data set [14] came out at 40%.
